Measured values: US6903119B1, “Amino acid derivatives and drugs containing the same as the active ingredient” (Ono Pharmaceutical Co., Ltd., priority 1998, dated 2005)
Counter-ions that a name gives are not always drawn.

Biological target: T1, N-type calcium channel (Homo sapiens, UniProt Q00975)
T1 construct: Cell line was differentiated according to the method described in FEBS Lett. (1988) 235 178-182; endogenous in cells; host or cells: unnamed cell line, differentiated per FEBS Lett. (1988) 235 178-182
Test: Determination of inhibitory activity on N-type calcium channel (Fura-2 calcium influx, KCl depolarization, with nifedipine)
Format: cell-based
Conditions: compound at final concentration of 3 μM, depolarized with 80 mM KCl, Fura-2 fluorescence, read-out: Inhibitory effect on calcium flow (%)
Description: Determination of Inhibitory Activity on N-type Calcium Channel:
Cell line was differentiated according to the method described in FEBS Lett. (1988) 235 178-182. The cell was loaded with fluoriescent reagent, Fura-2 AM (at the final concentration of 10 μM), at 37° C. for 30 minutes and suspended in Krebs-buffer containing HEPES (25 mM) to obtain the cell suspension. The obtained cell suspension was incubated in the presence or absence of the compounds of the present invention with nifedipine for 5 minutes. The cell was depolarized by adding potassium chloride solution (at the final concentration of 80 mM) thereto and then a fluorescence intensity at the emission wavelength of 500 nm excited by the UV of 340 nm and 380 nm alternately was measured using the intracellular calcium analyzer (Nippon Bunko Co., CAF-110). The inhibitory activity of the compound of the present invention (at the final concentration of 3 μM) on calcium influx into the cell was calculated from the difference in changing the fluorescence intensity at peak (ΔR) according to the following equation. [formula]

T1 sequence (Q00975 whole entry): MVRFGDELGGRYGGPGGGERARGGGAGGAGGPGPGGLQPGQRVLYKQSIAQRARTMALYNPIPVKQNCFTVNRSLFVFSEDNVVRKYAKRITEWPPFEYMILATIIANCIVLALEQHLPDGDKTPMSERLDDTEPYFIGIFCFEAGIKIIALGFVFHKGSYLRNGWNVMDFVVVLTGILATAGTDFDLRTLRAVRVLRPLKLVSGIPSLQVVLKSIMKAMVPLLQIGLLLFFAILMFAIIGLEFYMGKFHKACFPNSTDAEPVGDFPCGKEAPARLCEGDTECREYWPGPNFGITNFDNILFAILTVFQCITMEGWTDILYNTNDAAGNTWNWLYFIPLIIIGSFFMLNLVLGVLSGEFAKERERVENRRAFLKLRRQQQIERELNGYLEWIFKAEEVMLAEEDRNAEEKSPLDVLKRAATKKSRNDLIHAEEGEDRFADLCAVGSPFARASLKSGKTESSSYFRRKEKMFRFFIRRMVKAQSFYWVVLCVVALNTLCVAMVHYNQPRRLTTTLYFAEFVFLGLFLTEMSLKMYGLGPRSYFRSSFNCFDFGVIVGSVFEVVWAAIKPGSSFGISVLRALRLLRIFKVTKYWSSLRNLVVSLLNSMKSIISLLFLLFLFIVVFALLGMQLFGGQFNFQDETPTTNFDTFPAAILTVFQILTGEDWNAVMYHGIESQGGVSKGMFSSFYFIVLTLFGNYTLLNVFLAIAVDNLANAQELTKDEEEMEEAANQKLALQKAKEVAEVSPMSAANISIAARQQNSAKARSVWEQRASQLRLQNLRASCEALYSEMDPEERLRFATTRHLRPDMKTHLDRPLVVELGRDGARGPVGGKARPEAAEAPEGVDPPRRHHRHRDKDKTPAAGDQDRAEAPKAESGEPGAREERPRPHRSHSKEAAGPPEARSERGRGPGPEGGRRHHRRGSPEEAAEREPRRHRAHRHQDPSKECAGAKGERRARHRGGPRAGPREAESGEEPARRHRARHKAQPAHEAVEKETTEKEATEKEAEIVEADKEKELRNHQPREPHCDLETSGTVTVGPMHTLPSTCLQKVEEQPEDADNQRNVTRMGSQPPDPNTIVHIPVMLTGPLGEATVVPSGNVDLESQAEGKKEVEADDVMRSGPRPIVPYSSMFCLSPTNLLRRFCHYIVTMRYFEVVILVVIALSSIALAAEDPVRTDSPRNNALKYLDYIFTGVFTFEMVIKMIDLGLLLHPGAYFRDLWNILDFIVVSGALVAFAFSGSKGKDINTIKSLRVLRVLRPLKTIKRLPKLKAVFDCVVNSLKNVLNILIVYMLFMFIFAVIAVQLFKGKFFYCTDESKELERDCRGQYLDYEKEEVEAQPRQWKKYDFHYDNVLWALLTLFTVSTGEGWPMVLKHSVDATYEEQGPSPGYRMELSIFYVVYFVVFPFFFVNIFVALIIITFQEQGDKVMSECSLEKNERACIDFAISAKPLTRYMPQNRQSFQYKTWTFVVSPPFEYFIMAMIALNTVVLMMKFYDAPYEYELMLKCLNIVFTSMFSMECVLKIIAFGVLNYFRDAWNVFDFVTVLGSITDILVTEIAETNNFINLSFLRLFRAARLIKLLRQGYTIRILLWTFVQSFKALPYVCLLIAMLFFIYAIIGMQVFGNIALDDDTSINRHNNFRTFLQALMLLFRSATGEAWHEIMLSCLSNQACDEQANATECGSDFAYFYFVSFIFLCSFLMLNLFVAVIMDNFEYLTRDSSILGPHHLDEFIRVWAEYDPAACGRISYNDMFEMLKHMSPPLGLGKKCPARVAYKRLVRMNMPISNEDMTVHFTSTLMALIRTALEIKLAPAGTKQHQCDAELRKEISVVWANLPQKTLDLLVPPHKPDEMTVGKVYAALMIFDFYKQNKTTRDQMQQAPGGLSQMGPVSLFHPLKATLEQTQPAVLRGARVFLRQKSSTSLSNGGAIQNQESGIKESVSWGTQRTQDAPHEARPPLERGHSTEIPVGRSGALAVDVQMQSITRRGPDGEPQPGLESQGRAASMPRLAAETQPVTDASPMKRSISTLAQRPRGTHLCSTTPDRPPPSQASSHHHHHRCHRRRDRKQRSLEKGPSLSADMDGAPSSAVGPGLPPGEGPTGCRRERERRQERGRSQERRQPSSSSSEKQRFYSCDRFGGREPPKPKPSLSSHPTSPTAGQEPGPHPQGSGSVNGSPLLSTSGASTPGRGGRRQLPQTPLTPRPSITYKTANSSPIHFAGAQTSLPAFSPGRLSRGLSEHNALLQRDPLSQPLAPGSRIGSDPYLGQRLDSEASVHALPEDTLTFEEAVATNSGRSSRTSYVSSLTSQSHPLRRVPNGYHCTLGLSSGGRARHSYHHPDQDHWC

inhibition at 3 µM	Compound
81%	COCCOC(=O)N1CSC[C@H]1C(=O)N[C@@H](CSCC1CCCCC1)C(=O)NC1CCN(Cc2ccccc2)CC1 [compound 11]
89%	CC(C)(C)CC(=O)N1CSC[C@H]1C(=O)N[C@@H](CSCC1CCCCC1)C(=O)NC1CCN(Cc2ccccc2)CC1 [11 (2), (2R)-N-(1-benzylpiperidin-4-yl)-3-cyclohexylmethylthio-2-((4R)-3-(3,3-dimethylbutyryl)thiazolidin-4-ylcarbonylamino)propanamide.hydrochloride]
